According to publication PMC6199744, “Development of Chemical Proteomics for the Folateome and Analysis of the Kinetoplastid Folateome” (ACS Infectious Diseases, 2018):
Like-named read-outs stand apart in the source and are kept apart here.

Experiments:
Type in all cases: binding
[1] = target: T1, HeLa cell extract proteins (Homo sapiens, UniProt P05023)
T1 construct: endogenous in cells; host or cells: HeLa cell extract

[2] = target: T2, HeLa cell extract proteins (Homo sapiens, UniProt Q6ZN16)
T2 construct: endogenous in cells; host or cells: HeLa cell extract
T2 sequence (Q6ZN16 1-1313): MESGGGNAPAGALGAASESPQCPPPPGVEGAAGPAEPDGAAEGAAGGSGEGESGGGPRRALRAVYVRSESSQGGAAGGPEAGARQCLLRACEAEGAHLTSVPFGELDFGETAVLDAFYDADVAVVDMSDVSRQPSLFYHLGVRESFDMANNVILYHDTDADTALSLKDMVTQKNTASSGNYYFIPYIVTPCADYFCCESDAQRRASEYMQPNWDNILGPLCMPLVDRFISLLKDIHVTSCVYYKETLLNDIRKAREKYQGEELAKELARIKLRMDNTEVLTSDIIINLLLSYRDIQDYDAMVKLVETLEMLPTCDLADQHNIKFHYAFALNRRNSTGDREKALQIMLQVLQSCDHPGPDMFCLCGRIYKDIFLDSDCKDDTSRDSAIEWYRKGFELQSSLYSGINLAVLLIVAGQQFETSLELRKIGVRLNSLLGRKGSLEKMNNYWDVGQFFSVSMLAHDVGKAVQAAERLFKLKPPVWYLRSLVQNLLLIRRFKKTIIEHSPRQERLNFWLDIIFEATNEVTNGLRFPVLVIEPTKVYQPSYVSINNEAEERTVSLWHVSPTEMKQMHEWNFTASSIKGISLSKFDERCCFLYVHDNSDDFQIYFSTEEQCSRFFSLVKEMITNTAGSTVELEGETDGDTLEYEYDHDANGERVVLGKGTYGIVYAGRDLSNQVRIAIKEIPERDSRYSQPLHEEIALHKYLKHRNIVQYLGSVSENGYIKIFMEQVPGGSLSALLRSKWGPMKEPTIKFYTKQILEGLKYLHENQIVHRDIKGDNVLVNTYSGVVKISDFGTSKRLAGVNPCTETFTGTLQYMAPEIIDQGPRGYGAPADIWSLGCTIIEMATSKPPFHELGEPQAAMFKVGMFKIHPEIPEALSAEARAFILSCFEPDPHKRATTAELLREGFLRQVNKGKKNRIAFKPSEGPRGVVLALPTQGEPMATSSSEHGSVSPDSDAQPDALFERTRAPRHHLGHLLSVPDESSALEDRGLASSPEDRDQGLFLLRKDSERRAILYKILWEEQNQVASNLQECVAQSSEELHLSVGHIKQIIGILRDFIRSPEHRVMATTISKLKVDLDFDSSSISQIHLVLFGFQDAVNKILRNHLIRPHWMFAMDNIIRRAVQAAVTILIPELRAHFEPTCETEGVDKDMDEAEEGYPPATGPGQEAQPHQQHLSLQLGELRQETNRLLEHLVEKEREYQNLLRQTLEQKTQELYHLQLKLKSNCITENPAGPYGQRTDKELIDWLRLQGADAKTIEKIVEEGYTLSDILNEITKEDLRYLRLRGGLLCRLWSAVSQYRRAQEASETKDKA

[3] = target: T3, HeLa cell extract proteins (Homo sapiens, UniProt P00403)
T3 construct: endogenous in cells; host or cells: HeLa cell extract

[4] = target: T4, HeLa cell extract proteins (Homo sapiens, UniProt O95373)
T4 construct: endogenous in cells; host or cells: HeLa cell extract

[5] = target: T5, HeLa cell extract proteins (Homo sapiens, UniProt P61981)
T5 construct: endogenous in cells; host or cells: HeLa cell extract
T5 sequence (P61981 1-247): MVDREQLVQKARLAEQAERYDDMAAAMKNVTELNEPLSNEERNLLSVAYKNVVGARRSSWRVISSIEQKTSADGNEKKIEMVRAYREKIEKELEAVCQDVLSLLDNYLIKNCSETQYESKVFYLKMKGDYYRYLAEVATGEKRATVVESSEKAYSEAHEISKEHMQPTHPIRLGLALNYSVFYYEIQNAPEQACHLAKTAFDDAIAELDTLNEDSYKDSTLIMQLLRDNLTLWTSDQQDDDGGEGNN

[6] = target: T6, HeLa cell extract proteins (Homo sapiens, UniProt Q9Y5L0)
T6 construct: endogenous in cells; host or cells: HeLa cell extract
T6 sequence (Q9Y5L0 1-923): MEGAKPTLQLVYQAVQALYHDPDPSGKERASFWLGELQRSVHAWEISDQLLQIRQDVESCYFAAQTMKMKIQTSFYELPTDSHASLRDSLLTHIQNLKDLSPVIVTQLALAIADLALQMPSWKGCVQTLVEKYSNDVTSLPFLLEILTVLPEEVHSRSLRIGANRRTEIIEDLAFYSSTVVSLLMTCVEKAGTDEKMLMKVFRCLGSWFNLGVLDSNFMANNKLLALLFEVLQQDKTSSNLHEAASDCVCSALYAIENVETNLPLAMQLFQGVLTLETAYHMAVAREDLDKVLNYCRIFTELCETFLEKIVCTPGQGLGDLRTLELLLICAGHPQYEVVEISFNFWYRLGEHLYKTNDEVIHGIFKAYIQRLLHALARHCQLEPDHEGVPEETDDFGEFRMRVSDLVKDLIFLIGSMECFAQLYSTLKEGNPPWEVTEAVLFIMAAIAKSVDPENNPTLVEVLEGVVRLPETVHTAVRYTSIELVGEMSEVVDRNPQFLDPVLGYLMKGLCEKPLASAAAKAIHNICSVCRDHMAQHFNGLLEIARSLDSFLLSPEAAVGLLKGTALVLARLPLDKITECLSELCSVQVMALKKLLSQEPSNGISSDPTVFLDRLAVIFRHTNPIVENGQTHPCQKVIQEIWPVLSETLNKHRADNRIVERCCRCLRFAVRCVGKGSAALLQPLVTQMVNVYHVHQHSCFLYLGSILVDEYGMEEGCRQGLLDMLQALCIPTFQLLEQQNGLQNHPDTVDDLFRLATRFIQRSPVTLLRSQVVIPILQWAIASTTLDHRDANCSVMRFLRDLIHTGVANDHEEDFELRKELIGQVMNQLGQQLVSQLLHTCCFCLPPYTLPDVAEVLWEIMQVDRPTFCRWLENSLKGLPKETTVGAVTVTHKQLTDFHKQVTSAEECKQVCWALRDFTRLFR

[7] = HeLa, protein YWHAG (14-3-3 PROTEIN GAMMA.)

T3 sequence (P00403 whole entry): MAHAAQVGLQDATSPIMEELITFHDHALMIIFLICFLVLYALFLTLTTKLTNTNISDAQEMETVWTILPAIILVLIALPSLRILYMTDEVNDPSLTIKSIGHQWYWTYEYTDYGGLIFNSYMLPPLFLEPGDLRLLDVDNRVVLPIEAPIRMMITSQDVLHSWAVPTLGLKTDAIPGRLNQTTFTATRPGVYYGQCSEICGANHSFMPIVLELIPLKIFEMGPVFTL
T4 sequence (O95373 whole entry): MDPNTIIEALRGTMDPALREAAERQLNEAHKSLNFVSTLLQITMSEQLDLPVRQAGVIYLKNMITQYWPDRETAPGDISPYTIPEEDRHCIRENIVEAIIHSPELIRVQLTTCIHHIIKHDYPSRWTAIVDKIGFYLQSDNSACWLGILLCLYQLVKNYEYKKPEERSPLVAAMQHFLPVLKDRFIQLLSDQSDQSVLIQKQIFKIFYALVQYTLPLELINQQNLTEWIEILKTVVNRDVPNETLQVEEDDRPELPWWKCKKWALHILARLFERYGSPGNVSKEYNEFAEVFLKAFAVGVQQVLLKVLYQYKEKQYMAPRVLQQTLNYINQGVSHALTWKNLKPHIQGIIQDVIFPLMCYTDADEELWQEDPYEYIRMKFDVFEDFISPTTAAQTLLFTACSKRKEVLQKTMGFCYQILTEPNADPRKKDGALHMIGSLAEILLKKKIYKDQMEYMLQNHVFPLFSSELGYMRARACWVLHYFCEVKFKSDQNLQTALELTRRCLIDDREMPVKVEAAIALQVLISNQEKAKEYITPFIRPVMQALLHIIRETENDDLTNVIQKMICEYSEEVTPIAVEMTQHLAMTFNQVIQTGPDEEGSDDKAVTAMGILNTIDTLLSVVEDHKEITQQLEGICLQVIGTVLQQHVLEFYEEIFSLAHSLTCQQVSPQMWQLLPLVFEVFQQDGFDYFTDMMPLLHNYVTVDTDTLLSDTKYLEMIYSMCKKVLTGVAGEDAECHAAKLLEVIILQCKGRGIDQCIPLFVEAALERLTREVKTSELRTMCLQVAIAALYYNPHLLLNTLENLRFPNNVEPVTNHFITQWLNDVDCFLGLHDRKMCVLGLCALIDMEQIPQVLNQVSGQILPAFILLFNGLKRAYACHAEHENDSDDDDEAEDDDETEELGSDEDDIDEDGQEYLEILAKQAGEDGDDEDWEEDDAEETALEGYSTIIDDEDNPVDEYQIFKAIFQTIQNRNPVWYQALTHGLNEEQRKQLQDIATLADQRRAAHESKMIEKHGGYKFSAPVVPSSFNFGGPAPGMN

Nc1nc2c(c(=O)[nH]1)N(C=O)C(CNc1ccc(C(=O)N[C@@H](CCC(=O)O)C(=O)O)cc1)CN2 (stereo partly drawn) [LEU, leucovorin]
fold changes relative to vehicle control ([1]; protein ATP1A1, HeLa): 0.76 | fold changes relative to vehicle control ([2]; HeLa, protein MAP3K15): 1 | fold changes relative to vehicle control ([3]; protein COX2, HeLa): 1.05 | fold changes relative to vehicle control ([4]; HeLa, protein IPO7): 0.94 | fold changes relative to vehicle control ([5]; protein YWHAG, HeLa): 1.02 | fold changes relative to vehicle control ([6]; HeLa, captured protein TNPO3): 0.95

NCCCNc1ccc(C(=O)NC(CCC(=O)O)C(=O)O)cc1 (stereo not drawn) [compound 7]
fold changes relative to vehicle control ([1]; protein ATP1A1, HeLa): 0.92 | fold changes relative to vehicle control ([2]; HeLa, protein MAP3K15): 1.1 | fold changes relative to vehicle control ([3]; protein COX2, HeLa): 1.27 | fold changes relative to vehicle control ([4]; HeLa, protein IPO7): 0.99 | fold changes relative to vehicle control ([5]; protein YWHAG, HeLa): 0.91 | fold changes relative to vehicle control ([6]; HeLa, captured protein TNPO3): 0.96

CCCCCCOc1cccc(Cc2cnc(N)nc2N)c1 [compound 2]
fold changes relative to vehicle control ([1]; protein ATP1A1, HeLa): 1.25 | fold changes relative to vehicle control ([2]; captured protein MAP3K15, HeLa): 1.02 | fold changes relative to vehicle control ([3]; captured protein COX2, HeLa): 0.95 | fold changes relative to vehicle control ([4]; protein IPO7, HeLa): 1.09 | fold changes relative to vehicle control [5, 7]: 2.09 fold | fold changes relative to vehicle control ([6]; HeLa, protein TNPO3): 0.9

CCCCCCOc1ccc(Cc2cnc(N)nc2N)cc1 [compound 1]
fold changes relative to vehicle control ([1]; protein ATP1A1, HeLa): 0.73 | fold changes relative to vehicle control ([2]; captured protein MAP3K15, HeLa): 1.03 | fold changes relative to vehicle control ([3]; captured protein COX2, HeLa): 0.99 | fold changes relative to vehicle control ([4]; protein IPO7, HeLa): 0.93 | fold changes relative to vehicle control [5, 7]: 1.45 fold | fold changes relative to vehicle control ([6]; HeLa, protein TNPO3): 0.93

Nc1nc2cccc(-c3ccccc3)c2n1Cc1ccc(Cl)c(Cl)c1 [compound 3]
fold changes relative to vehicle control ([1]; protein ATP1A1, HeLa): 0.94 | fold changes relative to vehicle control ([2]; captured protein MAP3K15, HeLa): 1.01 | fold changes relative to vehicle control ([3]; captured protein COX2, HeLa): 1.14 | fold changes relative to vehicle control ([4]; protein IPO7, HeLa): 1.17 | fold changes relative to vehicle control [5, 7]: 0.97 fold | fold changes relative to vehicle control ([6]; HeLa, protein TNPO3): 1.01

NCCOCCOCC(=O)Nc1nc2ncc(CNc3ccc(C(=O)NC(CCC(=O)O)C(=O)O)cc3)nc2c(=O)[nH]1 (stereo not drawn) [compound 6]
fold changes relative to vehicle control ([1]; protein ATP1A1, HeLa): 1.05 | fold changes relative to vehicle control ([2]; HeLa, protein MAP3K15): 1.03 | fold changes relative to vehicle control ([3]; protein COX2, HeLa): 1.33 | fold changes relative to vehicle control ([4]; HeLa, protein IPO7): 0.98 | fold changes relative to vehicle control ([5]; protein YWHAG, HeLa): 1.26 | fold changes relative to vehicle control ([6]; HeLa, captured protein TNPO3): 1.04

Nc1nc2[nH]cc(CCc3ccc(C(=O)N[C@@H](CCC(=O)O)C(=O)O)cc3)c2c(=O)[nH]1 [PTX, pemetrexed]
fold changes relative to vehicle control [1]: 0.96 | fold changes relative to vehicle control [2]: 1.07 | fold changes relative to vehicle control [3]: 1.24 | fold changes relative to vehicle control [4]: 0.93 | fold changes relative to vehicle control [5]: 1.09 | fold changes relative to vehicle control [6]: 0.96
